Laboratory results as given in ChEMBL document CHEMBL4673372, “1,2,3-triazole-thiazole hybrids: Synthesis, in vitro antimicrobial activity and antibiofilm studies” (Bioorg Med Chem Lett, 2021).
Values after ≈ are worked out from the molar mass of the structure shown.

Test system: not listed separately
Test: Selectivity index, ratio of CC50 for human THP-1 cells to MIC for Staphylococcus aureus MTCC 96
Format: toxicity
Details: not given

SMILES	selectivity ratio
COc1ccc(-n2cc(COc3ccc(/C=N/Nc4nc(-c5ccc([N+](=O)[O-])cc5)cs4)cc3)nn2)cc1	2.58
COc1ccc(-n2cc(COc3ccc(/C=N/Nc4nc(-c5ccc(C)cc5)cs4)cc3)nn2)cc1	2.57
COc1ccc(-c2csc(N/N=C/c3ccc(OCc4cn(-c5ccc(OC)cc5)nn4)cc3)n2)cc1	5.13

Test system: not listed separately
Test: Cytotoxicity against human THP-1 cells
Format: cell-based
Details: not given

SMILES	CC50
COc1ccc(-n2cc(COc3ccc(/C=N/Nc4nc(-c5ccc([N+](=O)[O-])cc5)cs4)cc3)nn2)cc1	37.9 µM
COc1ccc(-n2cc(COc3ccc(/C=N/Nc4nc(-c5ccc(C)cc5)cs4)cc3)nn2)cc1	40.3 µM
COc1ccc(-c2csc(N/N=C/c3ccc(OCc4cn(-c5ccc(OC)cc5)nn4)cc3)n2)cc1	39 µM

Test system: THP-1
Test: Cytotoxicity against human THP-1 cells assessed as cell damage at 200 uM by LDH assay
Format: cell-based
Details: thp-1, 200 µM

SMILES	Activity
COc1ccc(-n2cc(COc3ccc(/C=N/Nc4nc(-c5ccc([N+](=O)[O-])cc5)cs4)cc3)nn2)cc1	Toxic
COc1ccc(-n2cc(COc3ccc(/C=N/Nc4nc(-c5ccc(C)cc5)cs4)cc3)nn2)cc1	Toxic
COc1ccc(-c2csc(N/N=C/c3ccc(OCc4cn(-c5ccc(OC)cc5)nn4)cc3)n2)cc1	Toxic

Test system: THP-1
Test: Cytotoxicity against human THP-1 cells assessed as reduction in cell viability at 200 uM by MTT assay
Format: cell-based
Details: thp-1, 200 µM

SMILES	Activity
COc1ccc(-n2cc(COc3ccc(/C=N/Nc4nc(-c5ccc([N+](=O)[O-])cc5)cs4)cc3)nn2)cc1	Toxic
COc1ccc(-n2cc(COc3ccc(/C=N/Nc4nc(-c5ccc(C)cc5)cs4)cc3)nn2)cc1	Toxic
COc1ccc(-c2csc(N/N=C/c3ccc(OCc4cn(-c5ccc(OC)cc5)nn4)cc3)n2)cc1	Toxic

Test system: Pseudomonas aeruginosa
Test: Bactericidal activity against Pseudomonas aeruginosa MTCC 2453
Format: functional
Details: not given

SMILES	MBC
COc1ccc(-n2cc(COc3ccc(/C=N/Nc4nc(-c5ccc([N+](=O)[O-])cc5)cs4)cc3)nn2)cc1	59.1 µM (≈ 31.2 µg/mL)

Test system: Micrococcus luteus
Test: Bactericidal activity against Micrococcus luteus MTCC 2470
Format: functional
Details: not given

SMILES	MBC
COc1ccc(-n2cc(COc3ccc(/C=N/Nc4nc(-c5ccc([N+](=O)[O-])cc5)cs4)cc3)nn2)cc1	29.5 µM (≈ 15.6 µg/mL)

Test system: Bacillus subtilis
Test: Bactericidal activity against Bacillus subtilis MTCC 121
Format: functional
Details: not given

SMILES	MBC
COc1ccc(-n2cc(COc3ccc(/C=N/Nc4nc(-c5ccc([N+](=O)[O-])cc5)cs4)cc3)nn2)cc1	29.5 µM (≈ 15.6 µg/mL)
COc1ccc(-c2csc(N/N=C/c3ccc(OCc4cn(-c5ccc(OC)cc5)nn4)cc3)n2)cc1	30.4 µM (≈ 15.6 µg/mL)

Test system: Staphylococcus aureus
Test: Bactericidal activity against Staphylococcus aureus MTCC 96
Format: functional
Details: not given

SMILES	MBC
COc1ccc(-n2cc(COc3ccc(/C=N/Nc4nc(-c5ccc([N+](=O)[O-])cc5)cs4)cc3)nn2)cc1	29.5 µM (≈ 15.6 µg/mL)
COc1ccc(-n2cc(COc3ccc(/C=N/Nc4nc(-c5ccc(C)cc5)cs4)cc3)nn2)cc1	31.4 µM (≈ 15.6 µg/mL)
COc1ccc(-c2csc(N/N=C/c3ccc(OCc4cn(-c5ccc(OC)cc5)nn4)cc3)n2)cc1	30.4 µM (≈ 15.6 µg/mL)

Test system: Pseudomonas aeruginosa
Test: Antibacterial activity against Pseudomonas aeruginosa MTCC 2453 assessed as inhibition of bacterial growth by microtiter broth dilution method
Format: functional
Details: not given

SMILES	MIC
COc1ccc(-n2cc(COc3ccc(/C=N/Nc4nc(-c5ccc([N+](=O)[O-])cc5)cs4)cc3)nn2)cc1	14.7 µM (≈ 7.76 µg/mL)
COc1ccc(-n2cc(COc3ccc(/C=N/Nc4nc(-c5ccc(C)cc5)cs4)cc3)nn2)cc1	> 252 µM
COc1ccc(-c2csc(N/N=C/c3ccc(OCc4cn(-c5ccc(OC)cc5)nn4)cc3)n2)cc1	> 244 µM

Test system: Escherichia coli
Test: Antibacterial activity against Escherichia coli MTCC 739 assessed as inhibition of bacterial growth by microtiter broth dilution method
Format: functional
Details: not given

SMILES	MIC
COc1ccc(-n2cc(COc3ccc(/C=N/Nc4nc(-c5ccc([N+](=O)[O-])cc5)cs4)cc3)nn2)cc1	> 237 µM
COc1ccc(-n2cc(COc3ccc(/C=N/Nc4nc(-c5ccc(C)cc5)cs4)cc3)nn2)cc1	> 252 µM
COc1ccc(-c2csc(N/N=C/c3ccc(OCc4cn(-c5ccc(OC)cc5)nn4)cc3)n2)cc1	> 244 µM

Test system: Raoultella planticola
Test: Antibacterial activity against Klebsiella planticola MTCC 530 assessed as inhibition of bacterial growth by microtiter broth dilution method
Format: functional
Details: not given

SMILES	MIC
COc1ccc(-n2cc(COc3ccc(/C=N/Nc4nc(-c5ccc([N+](=O)[O-])cc5)cs4)cc3)nn2)cc1	> 237 µM
COc1ccc(-n2cc(COc3ccc(/C=N/Nc4nc(-c5ccc(C)cc5)cs4)cc3)nn2)cc1	> 252 µM
COc1ccc(-c2csc(N/N=C/c3ccc(OCc4cn(-c5ccc(OC)cc5)nn4)cc3)n2)cc1	> 244 µM

Test system: Micrococcus luteus
Test: Antibacterial activity against Micrococcus luteus MTCC 2470 assessed as inhibition of bacterial growth by microtiter broth dilution method
Format: functional
Details: not given

SMILES	MIC
COc1ccc(-n2cc(COc3ccc(/C=N/Nc4nc(-c5ccc([N+](=O)[O-])cc5)cs4)cc3)nn2)cc1	14.7 µM (≈ 7.76 µg/mL)
COc1ccc(-n2cc(COc3ccc(/C=N/Nc4nc(-c5ccc(C)cc5)cs4)cc3)nn2)cc1	> 252 µM
COc1ccc(-c2csc(N/N=C/c3ccc(OCc4cn(-c5ccc(OC)cc5)nn4)cc3)n2)cc1	> 244 µM

Test system: Bacillus subtilis
Test: Antibacterial activity against Bacillus subtilis MTCC 121 assessed as inhibition of bacterial growth by microtiter broth dilution method
Format: functional
Details: not given

SMILES	MIC
COc1ccc(-n2cc(COc3ccc(/C=N/Nc4nc(-c5ccc([N+](=O)[O-])cc5)cs4)cc3)nn2)cc1	14.7 µM (≈ 7.76 µg/mL)
COc1ccc(-n2cc(COc3ccc(/C=N/Nc4nc(-c5ccc(C)cc5)cs4)cc3)nn2)cc1	> 252 µM
COc1ccc(-c2csc(N/N=C/c3ccc(OCc4cn(-c5ccc(OC)cc5)nn4)cc3)n2)cc1	7.6 µM (≈ 3.9 µg/mL)

Test system: Staphylococcus aureus
Test: Antibacterial activity against Staphylococcus aureus MLS16 MTCC 2940 assessed as inhibition of bacterial growth by microtiter broth dilution method
Format: functional
Details: not given

SMILES	MIC
COc1ccc(-n2cc(COc3ccc(/C=N/Nc4nc(-c5ccc([N+](=O)[O-])cc5)cs4)cc3)nn2)cc1	> 237 µM
COc1ccc(-n2cc(COc3ccc(/C=N/Nc4nc(-c5ccc(C)cc5)cs4)cc3)nn2)cc1	> 252 µM
COc1ccc(-c2csc(N/N=C/c3ccc(OCc4cn(-c5ccc(OC)cc5)nn4)cc3)n2)cc1	> 244 µM

Test system: Staphylococcus aureus
Test: Antibacterial activity against Staphylococcus aureus MTCC 96 assessed as inhibition of bacterial growth by microtiter broth dilution method
Format: functional
Details: not given

SMILES	MIC
COc1ccc(-n2cc(COc3ccc(/C=N/Nc4nc(-c5ccc([N+](=O)[O-])cc5)cs4)cc3)nn2)cc1	14.7 µM (≈ 7.76 µg/mL)
COc1ccc(-n2cc(COc3ccc(/C=N/Nc4nc(-c5ccc(C)cc5)cs4)cc3)nn2)cc1	15.7 µM (≈ 7.8 µg/mL)
COc1ccc(-c2csc(N/N=C/c3ccc(OCc4cn(-c5ccc(OC)cc5)nn4)cc3)n2)cc1	7.6 µM (≈ 3.9 µg/mL)
